According to US20200190087A1 (priority 2016, published 2020):
pKi: −log10 of the molar value. Where two headings read alike, the source gives them in different places.

How the values were obtained:
human μ-opioid receptor = target: T1, human μ-opioid receptor (Homo sapiens, UniProt P35372); test: Human μ-opioid receptor radioligand assay ([3H]-DAMGO); type: binding
T1 construct: expressed in transfected cells; host or cells: CHO-K1
Procedure: Human μ-Opioid Receptor Radioligand Assay
To investigate binding properties of test compounds to human μ-opioid receptor, transfected CHO-K1 cell membranes and [^3H]-DAMGO (Perkin Elmer, ES-542-C), as the radioligand, were used. The assay was carried out with 20 μg of membrane suspension, 1 nM of [^3H]-DAMGO in either absence or presence of either buffer or 10 μM Naloxone for total and non-specific binding, respectively. Binding buffer contained Tris-HCl 50 mM, MgCl2 5 mM at pH 7.4. Plates were incubated at 27° C. for 60 minutes. After the incubation period, the reaction mix was then transferred to MultiScreen HTS, FC plates (Millipore), filtered and plates were washed 3 times with ice-cold 10 mM Tris-HCL (pH 7.4). Filters were dried and counted at approximately 40% efficiency in a MicroBeta scintillation counter (Perkin-Elmer) using EcoScint liquid scintillation cocktail. Preferably, transfected CHO-K1 cell membranes (20 μg) were incubated with 1 nM of [^3H]-DAMGO in assay buffer containing Tris-HCl 50 mM, MgCl2 5 mM at pH 7.4. NBS (non-specific binding) was measured by adding 10 μM Naloxone. The binding of the test compound was measured at five different concentrations. Plates were incubated at 27° C. for 60 minutes. After the incubation period, the reaction mix was then transferred to MultiScreen HTS, FC plates (Millipore), filtered and plates were washed 3 times with ice-cold 10 mM Tris-HCL (pH 7.4). Filters were dried and counted at approximately 40% efficiency in a MicroBeta scintillation counter (Perkin-Elmer) using EcoScint liquid scintillation cocktail.

[1] = target: Human α2δ-1 subunit of Cav2.2 calcium channel (Homo sapiens, UniProt P54289); test: Human α2δ-1 subunit of Cav2.2 calcium channel assay ([3H]-Gabapentin binding); conditions: human α2δ-1 enriched membranes, 15 nM [3H]-Gabapentin, binding expressed as Ki; read-out: α2δ1 binding activity
Procedure: Human α2δ-1 Subunit of Cav2.2 Calcium Channel Assay
Human α2δ-1 enriched membranes (2.5 μg) were incubated with 15 nM of radiolabeled [3H]-Gabapentin in assay buffer containing Hepes-KOH 10 mM, pH 7.4. NSB (non specific binding) was measured by adding 10 μM pregabalin. The binding of the test compound was measured at five different concentrations. After 60 min incubation at 27° C., binding reaction was terminated by filtering through Multiscreen GF/C (Millipore) presoaked in 0.5% polyethyleneimine in Vacuum Manifold Station, followed by 3 washes with ice-cold filtration buffer containing 50 mM Tris-HCl, pH 7.4. Filter plates were dried at 60° C. for 1 hour and 30 μl of scintillation cocktail were added to each well before radioactivity reading. Readings were performed in a Trilux 1450 Microbeta radioactive counter (Perkin Elmer).

[2] = transfected CHO-K1 cell membranes, 1 nM [3H]-DAMGO, binding expressed as Ki, read-out: Mu binding activity

T1 sequence (P35372 whole entry): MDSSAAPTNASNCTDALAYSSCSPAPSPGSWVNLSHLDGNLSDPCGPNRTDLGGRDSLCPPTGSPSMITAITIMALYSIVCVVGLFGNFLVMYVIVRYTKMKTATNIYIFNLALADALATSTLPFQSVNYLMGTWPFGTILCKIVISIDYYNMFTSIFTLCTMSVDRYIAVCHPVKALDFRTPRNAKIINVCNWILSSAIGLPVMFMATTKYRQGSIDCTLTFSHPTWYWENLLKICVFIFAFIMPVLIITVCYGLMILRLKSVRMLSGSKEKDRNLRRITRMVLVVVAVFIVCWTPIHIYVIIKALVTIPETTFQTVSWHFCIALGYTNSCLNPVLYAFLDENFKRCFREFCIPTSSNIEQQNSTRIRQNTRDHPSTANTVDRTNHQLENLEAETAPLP
Chain of Human α2δ-1 subunit of Cav2.2 calcium channel (P54289 25-1103): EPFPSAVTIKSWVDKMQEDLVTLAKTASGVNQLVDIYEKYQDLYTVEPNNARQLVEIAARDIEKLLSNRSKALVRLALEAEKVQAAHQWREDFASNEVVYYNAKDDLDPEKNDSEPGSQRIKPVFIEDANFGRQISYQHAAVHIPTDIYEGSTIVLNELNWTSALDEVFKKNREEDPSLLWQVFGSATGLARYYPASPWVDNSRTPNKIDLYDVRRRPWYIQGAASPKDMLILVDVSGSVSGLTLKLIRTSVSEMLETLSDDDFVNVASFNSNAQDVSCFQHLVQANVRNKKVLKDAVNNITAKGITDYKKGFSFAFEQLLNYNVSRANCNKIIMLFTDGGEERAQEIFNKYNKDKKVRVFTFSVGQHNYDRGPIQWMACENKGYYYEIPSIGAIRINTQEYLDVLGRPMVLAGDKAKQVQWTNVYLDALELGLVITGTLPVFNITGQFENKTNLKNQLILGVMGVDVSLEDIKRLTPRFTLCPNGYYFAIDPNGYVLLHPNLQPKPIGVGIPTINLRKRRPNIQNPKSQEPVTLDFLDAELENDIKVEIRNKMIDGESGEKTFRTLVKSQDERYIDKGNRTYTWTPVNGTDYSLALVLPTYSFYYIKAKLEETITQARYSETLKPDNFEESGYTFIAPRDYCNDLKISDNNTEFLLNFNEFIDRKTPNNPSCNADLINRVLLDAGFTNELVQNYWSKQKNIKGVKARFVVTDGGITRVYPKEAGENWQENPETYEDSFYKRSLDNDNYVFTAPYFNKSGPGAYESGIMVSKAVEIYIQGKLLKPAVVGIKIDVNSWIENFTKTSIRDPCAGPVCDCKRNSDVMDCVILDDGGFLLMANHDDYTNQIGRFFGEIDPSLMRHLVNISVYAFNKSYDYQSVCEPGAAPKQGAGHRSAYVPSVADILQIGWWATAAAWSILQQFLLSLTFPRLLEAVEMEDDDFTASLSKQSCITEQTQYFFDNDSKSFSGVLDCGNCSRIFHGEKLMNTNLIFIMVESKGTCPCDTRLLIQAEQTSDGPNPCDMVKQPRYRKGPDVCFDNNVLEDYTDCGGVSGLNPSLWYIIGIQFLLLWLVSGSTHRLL

| Compound | pKi (human μ-opioid receptor; [2]) | pKi [1] | pKi (human μ-opioid receptor) |
| --- | --- | --- | --- |
| CCOc1ccc(-n2nc3c(C4=CCN(C(=O)OC(C)(C)C)CC4)nnc(C)c3c2C)c(F)c1 [Ex 1, tert-Butyl 4-(2-(4-ethoxy-2-fluorophenyl)-3,4-dimethyl-2H-pyrazolo[3,4-d]pyridazin-7-yl)-3,6-dihydropyridine-1(2H)-carboxylate] | < 6.30 | ≤ 5.30 | – |
| CCOc1ccc(-n2nc3c(C4=CCN(C)CC4)nnc(C)c3c2C)c(F)c1 [Ex 2, 2-(4-Ethoxy-2-fluorophenyl)-3,4-dimethyl-7-(1-methyl-1,2,3,6-tetrahydropyridin-4-yl)-2H-pyrazolo[3,4-d]pyridazine] | < 6.30 | ≤ 5.30 | – |
| CCOc1ccc(-n2nc3c(C4=CN(C(=O)OC(C)(C)C)CCC4)nnc(C)c3c2C)c(F)c1 [Ex 3, tert-Butyl 5-(2-(4-ethoxy-2-fluorophenyl)-3,4-dimethyl-2H-pyrazolo[3,4-d]pyridazin-7-yl)-3,4-dihydropyridine-1(2H)-carboxylate] | < 6.30 | ≤ 5.30 | – |
| CCOc1ccc(-n2nc3c(/C=C/CNC(=O)OC(C)(C)C)nnc(C)c3c2C)c(F)c1 [Ex 4, tert-Butyl (E)-(3-(2-(4-ethoxy-2-fluorophenyl)-3,4-dimethyl-2H-pyrazolo[3,4-d]pyridazin-7-yl)allyl)carbamate] | < 6.30 | ≤ 5.30 | – |
| CCOc1ccc(-n2nc3c(/C=C/CN(C)C(=O)OC(C)(C)C)nnc(C)c3c2C)c(F)c1 [Ex 5, tert-Butyl (E)-(3-(2-(4-ethoxy-2-fluorophenyl)-3,4-dimethyl-2H-pyrazolo[3,4-d]pyridazin-7-yl)allyl)(methyl)carbamate] | < 6.30 | ≤ 5.30 | – |
| CCOc1ccc(-n2nc3c(-c4ccc(CN(C)C)cc4)nnc(C)c3c2C)c(F)c1 [Ex 6, 1-(4-(2-(4-Ethoxy-2-fluorophenyl)-3,4-dimethyl-2H-pyrazolo[3,4-d]pyridazin-7-yl)phenyl)-N,N-dimethylmethanamine] | < 6.30 | 5.52 to 6.30 | – |
| CCOc1ccc(-n2nc3c(-c4ccc(CCN(C)C)cc4)nnc(C)c3c2C)c(F)c1 [Ex 7, 2-(4-(2-(4-Ethoxy-2-fluorophenyl)-3,4-dimethyl-2H-pyrazolo[3,4-d]pyridazin-7-yl)phenyl)-N,N-dimethylethan-1-amine] | < 6.30 | 5.52 to 6.30 | – |
| CCOc1ccc(-n2nc3c(-c4cccc(CN(C)C)c4)nnc(C)c3c2C)c(F)c1 [Ex 8, 1-(3-(2-(4-Ethoxy-2-fluorophenyl)-3,4-dimethyl-2H-pyrazolo[3,4-d]pyridazin-7-yl)phenyl)-N,N-dimethylmethanamine] | < 6.30 | 5.52 to 6.30 | – |
| CCOc1ccc(-n2nc3c(-c4cccc(CCN(C)C)c4)nnc(C)c3c2C)c(F)c1 [Ex 9, 2-(3-(2-(4-Ethoxy-2-fluorophenyl)-3,4-dimethyl-2H-pyrazolo[3,4-d]pyridazin-7-yl)phenyl)-N,N-dimethylethan-1-amine] | < 6.30 | 5.52 to 6.30 | – |
| CCOc1ccc(-n2nc3c(-c4ccc5ncn(CCN(C)C)c5c4)nnc(C)c3c2C)c(F)c1 [Ex 10, 2-(6-(2-(4-Ethoxy-2-fluorophenyl)-3,4-dimethyl-2H-pyrazolo[3,4-d]pyridazin-7-yl)-1H-benzo[d]imidazol-1-yl)-N,N-dimethylethan-1-amine] | < 6.30 | 5.30 to 5.52 | – |
| CCOc1ccc(-n2nc3c(-c4ccc5ncn(CCNC(=O)OC(C)(C)C)c5c4)nnc(C)c3c2C)c(F)c1 [Ex 11, tert-butyl (2-(6-(2-(4-ethoxy-2-fluorophenyl)-3,4-dimethyl-2H-pyrazolo[3,4-d]pyridazin-7-yl)-1H-benzo[d]imidazol-1-yl)ethyl)carbamate] | < 6.30 | < 5.30 | – |
| CCOc1ccc(-n2nc3c(C4CN(C(=O)OC(C)(C)C)C4)nnc(C)c3c2C)c(F)c1 [Ex 12, tert-Butyl 3-(2-(4-ethoxy-2-fluorophenyl)-3,4-dimethyl-2H-pyrazolo[3,4-d]pyridazin-7-yl)azetidine-1-carboxylate] | < 6.30 | ≤ 5.30 | – |
| CCOc1ccc(-n2nc3c(C4CCN(C(=O)OC(C)(C)C)CC4)nnc(C)c3c2C)c(F)c1 [Ex 13, tert-Butyl 4-(2-(4-ethoxy-2-fluorophenyl)-3,4-dimethyl-2H-pyrazolo[3,4-d]pyridazin-7-yl)piperidine-1-carboxylate] | < 6.30 | ≤ 5.30 | – |
| CCOc1ccc(-n2nc3c(C4CCN(C)CC4)nnc(C)c3c2C)c(F)c1 [Ex 14, 2-(4-Ethoxy-2-fluorophenyl)-3,4-dimethyl-7-(1-methylpiperidin-4-yl)-2H-pyrazolo[3,4-d]pyridazine] | < 6.30 | 5.52 to 6.30 | – |
| CCOc1ccc(-n2nc3c(C4CCCN(C(=O)OC(C)(C)C)C4)nnc(C)c3c2C)c(F)c1 (stereo not drawn) [Ex 15, tert-Butyl-3-(2-(4-ethoxy-2-fluorophenyl)-3,4-dimethyl-2H-pyrazolo[3,4-d]pyridazin-7-yl)piperidine-1-carboxylate] | < 6.30 | ≤ 5.30 | – |
| CCOc1ccc(-n2nc3c(CCCNC(=O)OC(C)(C)C)nnc(C)c3c2C)c(F)c1 [Ex 16, tert-Butyl-(3-(2-(4-ethoxy-2-fluorophenyl)-3,4-dimethyl-2H-pyrazolo[3,4-d]pyridazin-7-yl)propyl)carbamate] | < 6.30 | ≤ 5.30 | – |
| CCOc1ccc(-n2nc3c(CCCN(C)C(=O)OC(C)(C)C)nnc(C)c3c2C)c(F)c1 [Ex 17, tert-Butyl-(3-(2-(4-ethoxy-2-fluorophenyl)-3,4-dimethyl-2H-pyrazolo[3,4-d]pyridazin-7-yl)propyl)(methyl)carbamate] | < 6.30 | ≤ 5.30 | – |
| CCOc1ccc(-n2nc3c(C4CCNCC4)nnc(C)c3c2C)c(F)c1 [Ex 18, 2-(4-Ethoxy-2-fluorophenyl)-3,4-dimethyl-7-(piperidin-4-yl)-2H-pyrazolo[3,4-d]pyridazine] | < 6.30 | 5.52 to 6.30 | – |
| CCOc1ccc(-n2nc3c(C4CCCNC4)nnc(C)c3c2C)c(F)c1 (stereo not drawn) [Ex 19, 2-(4-Ethoxy-2-fluorophenyl)-3,4-dimethyl-7-(piperidin-3-yl)-2H-pyrazolo[3,4-d]pyridazine] | < 6.30 | ≤ 5.30 | – |
| CCOc1ccc(-n2nc3c(CCCN)nnc(C)c3c2C)c(F)c1 [Ex 20, 3-(2-(4-Ethoxy-2-fluorophenyl)-3,4-dimethyl-2H-pyrazolo[3,4-d]pyridazin-7-yl)propan-1-amine] | < 6.30 | 5.52 to 6.30 | – |
| CCOc1ccc(-n2nc3c(CCCNC)nnc(C)c3c2C)c(F)c1 [Ex 21, 3-(2-(4-Ethoxy-2-fluorophenyl)-3,4-dimethyl-2H-pyrazolo[3,4-d]pyridazin-7-yl)-N-methylpropan-1-amine] | < 6.30 | ≤ 5.30 | – |
| CCOc1ccc(-n2nc3c(C4CNC4)nnc(C)c3c2C)c(F)c1 [Ex 22, 7-(Azetidin-3-yl)-2-(4-ethoxy-2-fluorophenyl)-3,4-dimethyl-2H-pyrazolo[3,4-d]pyridazine] | < 6.30 | ≤ 5.30 | – |
| CCOc1ccc(-n2nc3c(CCN)nnc(C)c3c2C)c(F)c1 [Ex 23, 2-(2-(4-Ethoxy-2-fluorophenyl)-3,4-dimethyl-2H-pyrazolo[3,4-d]pyridazin-7-yl)ethan-1-amine] | < 6.30 | ≤ 5.30 | – |
| CCOc1ccc(-n2nc3c(-c4ccc5ncn(CCN)c5c4)nnc(C)c3c2C)c(F)c1 [Ex 24, 2-(6-(2-(4-Ethoxy-2-fluorophenyl)-3,4-dimethyl-2H-pyrazolo[3,4-d]pyridazin-7-yl)-1H-benzo[d]imidazol-1-yl)ethan-1-amine] | < 6.30 | 5.30 to 5.52 | – |
| CCOc1ccc(-n2nc3c(C4CCN(CCc5ccccc5)CC4)nnc(C)c3c2C)c(F)c1 [Ex 25, 2-(4-Ethoxy-2-fluorophenyl)-3,4-dimethyl-7-(1-phenethylpiperidin-4-yl)-2H-pyrazolo[3,4-d]pyridazine] | – | 5.52 to 6.30 | > 6.30 |
| CCOc1ccc(-n2nc3c(C4CCN(Cc5ccccc5)CC4)nnc(C)c3c2C)c(F)c1 [Ex 26, 7-(1-Benzylpiperidin-4-yl)-2-(4-ethoxy-2-fluorophenyl)-3,4-dimethyl-2H-pyrazolo[3,4-d]pyridazine] | – | > 6.30 | > 6.30 |
| CCOc1ccc(-n2nc3c(C4CCN(Cc5ccc(F)cc5)CC4)nnc(C)c3c2C)c(F)c1 [Ex 27, 2-(4-Ethoxy-2-fluorophenyl)-7-(1-(4-fluorobenzyl)piperidin-4-yl)-3,4-dimethyl-2H-pyrazolo[3,4-d]pyridazine] | < 6.30 | 5.52 to 6.30 | – |
